{"source": "patent US8258099B2", "about": "“Pin1-modulating compounds and methods of use thereof” (Max-Planck-Gesellschaft zur Foerderung der Wissenschaften …, priority 2004, dated 2012)", "key": {"hPin1 PPIase domain": {"biological_target": "T1, hPin1 PPIase domain (Homo sapiens, UniProt Q13526)", "T1 construct": "The hPin1 PPIase domain comprising of amino acid residues Gly45-Glu163 was amplified by PCR; made in house; host or cells: E. coli BL21(DE3) (pET28a)", "T1 sequence (Q13526 45-163)": "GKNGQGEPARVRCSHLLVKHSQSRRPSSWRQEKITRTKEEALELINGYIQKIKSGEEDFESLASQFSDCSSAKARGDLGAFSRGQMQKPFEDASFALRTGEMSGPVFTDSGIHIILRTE", "test": "Isothermal titration calorimetry (ITC), isolated PPIase domain", "format": "binding", "procedure": "(§1) Calorimetric experiments were performed using a VP-ITC titration calorimeter (MicroCal, Inc, Northampton, Mass.) at 10° C. All solutions were degassed under vacuum prior to use. Solutions of hPin1 and hPin1 PPIase domain were dialyzed against 10 mM Hepes (pH 7.8). The protein concentration in the sample cell was adjusted to 6.5 μM using the same batch of buffer. Protein concentrations were determined as described above. The volume of the protein solution in the sample cell was 1.4 ml. The injection syringe was filled with 300 μl solution of peptide 17 (see table III) (250 μM in the same batch of buffer as used for dialyses). Each titration experiment consisted of a single 1 μl injection followed by 16 identical injections of 5 μl solution of peptide 17.\n(§2) The stability of peptides 15 and 17 in cytoplasmic extracts from HeLa cells was investigated using MALDI-TOF mass spectrometry and capillary electrophoresis, respectively. In the cytosolic incubation mixture, streptavidin sepharose beads served to isolate peptide 15 fragments after prolonged incubation. […] Therefore, phosphopeptides are useless for evaluating Pin1 functions in vivo unless dephosphorylation can be avoided."}, "XlPin1": {"biological_target": "XlPin1", "test": "Protease free PPIase assay, XlPin1", "format": "biochemical, X. laevis", "procedure": "Protein concentrations were determined using the extinction coefficient ε280=21030 M^−1 cm^−1 for hPin1, ε280=6979 M^−1 cm^−1 for the hPin1 PPIase domain, ε280=21030 M^−1 cm^−1 for XlPin1, ε280=8250 M^−1 cm^−1 for hPar14 and ε280=8250 M^−1 cm^−1 for hCyp18. Extinction coefficients were calculated using the program ProtParam Tool at ExPASy (SIB, Switzerland). All measurements were done at 10° C. in 35 mM Hepes buffer (pH 7.8).\nThe determination of the kinetic constants of the cis/trans isomerization within the protease-free system was performed using fluorescence based measurements (Garcia-Echeverria et al., 1993, Zhang et al., 2002) on a Hitachi F-3010 fluorescence spectrophotometer with H-Abz-Ala-Glu-Pro-Phe-NH-Np (SEQ ID NO: 2) as substrate. The substrate stock solution was 12 mM in anhydrous trifluoroethanol/0.55 M LiCl. […] The excitation wavelength was 320 nm (spectral bandwidth 3 nm) and emission was detected at 420 nm (spectral bandwidth 10 nm).\nData analysis was performed by single-exponential nonlinear regression using the SigmaPlot Scientific Graphing System Version 5.00 (Jandel Corp.). […] The rate constant k0 was determined in the absence of Pin1. The first order rate constants kenz was calculated from the equation kenz=kobs−k0. […]"}, "full length hPin1": {"biological_target": "T2, full length hPin1 (Homo sapiens, UniProt Q13526)", "T2 construct": "The protease free assay ensures reliable measurement of IC50 values for the full-length hPin1", "T2 sequence (Q13526 whole entry)": "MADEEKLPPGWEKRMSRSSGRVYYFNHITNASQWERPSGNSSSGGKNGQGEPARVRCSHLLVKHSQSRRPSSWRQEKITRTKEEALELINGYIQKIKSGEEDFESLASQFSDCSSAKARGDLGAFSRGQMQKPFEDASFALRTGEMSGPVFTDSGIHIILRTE", "test": "Isothermal titration calorimetry (ITC), full length hPin1", "format": "binding", "procedure": "FIGS. 3A-B depicts a thermodynamic characterization of the binding of peptide 17 towards full length hPin1 by isothermal titration calorimetry (ITC). FIG. 3A depicts peaks that represent the heat evolved after injection of peptide 17 into the sample cell containing hPin1. After the 11th injection only the heat of dilution is observed. The experiment was performed at 10 C. FIG. 3B depicts integrals of the corresponding peaks of panel A are plotted against the molar ratio of peptide 17 and hPin1. The solid line represents a nonlinear least squares fit analysis of the binding heat assuming a single binding site model with the following parameters: ΔHbind=−4561±36 cal/mol, TΔSbind=5433±529 cal/mol, n=0.96 (binding stoichiometry) and KAss=5.18×10^7±7×10^6 M^−1 (association constant).\nas §1\nIn principle, minimally four forms of a competing substrate in the presence of hPin1 have to be considered, the free cis and trans isomers together with two Michaelis complexes. This four-site exchange model of PPIase catalysis involves understanding predisposing factors of the stability of hPin1/substrate complexes, expected to be weaker, than the stability for those formed by phosphopeptides lacking substrate properties. The consequent increase in inhibitory potency could be realized by a transition state destabilizing substitution in peptide 15. Previous studies have shown that following C^α-stereocenter inversion of a substrate at the P1 position the parvulins fully retain substrate-like active site affinity for the derivatives while catalytic rate acceleration is abolished (Schiene et al., 1998). […] To optimize solute diffusion after mechanical injection of the Pin1 binding peptides into the viscous Xenopus laevis egg cytosol, the molecular weight of 1376.5 for peptide 16 was reduced to 823.8 for peptide 17. Following chain truncation peptide 17 maintained high affinity for Pin1 (Table III). To ensure domain selectivity, the binding of peptide 17 towards hPin1 was characterized using the isothermal titration calorimetry (ITC). […] The dissociation constant determined with ITC is in the same range as obtained in the protease-free PPIase assay (Table III)."}, "[1]": {"test": "Stability against cellular phosphatases and proteases in HeLa cell lysate", "format": "in vitro ADME", "procedure": "FIG. 4 depicts the stability of peptide 17 against cellular phosphatases and proteases. Peptide 17 was incubated for 3 hours in HeLa cell lysate in the absence of phosphatase and protease inhibitors. The mixture was then analyzed by capillary electrophoresis (short dashed line). As controls, the untreated peptide 17 (solid line) and its nonphosphorylated derivative (dotted line) were used. The temperature of the capillary thermostating system was kept at 16° C. Separation buffer was 50 mM sodium phosphate, pH 7.0. Signals were detected at 220 nm.\nPeptide 17 was incubated with HeLa cell lysate for 3 h and analyzed with capillary electrophoresis using UV detection at 220 nm on a P/ACE MDQ (Beckman Coulter, Palo Alto, Calif.) system. Fused-silica capillaries (Polymicro Technologies) of 40 cm length at an operation voltage of 20 kV were used. As references, untreated peptide 17 and its nonphosphorylated derivative were used. The samples were hydrodynamically injected with 3.45 kPa for 10 s. 50 mM sodium phosphate buffer (pH 7.0) was used as separation buffer. The system temperature was kept at 16° C.\nas §2"}, "[2]": {"conditions": "ITC, 10° C., single binding site model"}}, "note": "Square brackets hold non-standard residues; d marks the D form. Peptide text beside a SMILES is read from it. d(pT) = C[C@H](OP(=O)(O)O)[C@@H](N)C(=O)O; 2Nal = N[C@@H](Cc1ccc2ccccc2c1)C(=O)O; Pip = O=C(O)[C@@H]1CCCCN1"}
{"molecule": "CC(=O)N[C@@H](Cc1ccccc1)C(=O)N[C@@H](C(=O)N1CCCC[C@H]1C(=O)N[C@@H](Cc1ccc2ccccc2c1)C(=O)N[C@@H](CCC(N)=O)C(N)=O)[C@H](C)OP(=O)(O)O", "note": "[Peptide 17, Ac-Phe-D-Thr(PO3H2)-Pip-Nal-Gln-NH2] (Ac-F[d(pT)][Pip][2Nal]Q-NH2)", "values": [{"measurement": "thermodynamic constants, isolated PPIase domain versus full-length hPin1", "setting": "hPin1 PPIase domain", "value": "same thermodynamic constants"}, {"measurement": "Ki", "setting": "XlPin1; footnote b) (text of footnote not given), probably XlPin1", "value": 34.4, "unit": "nM"}, {"measurement": "difference in affinity for recombinant Pin1 of both organisms", "setting": "XlPin1; hPin1 versus XlPin1", "value": "no marked difference"}, {"measurement": "Kd", "setting": "full length hPin1", "value": "19.3 ± 2.6", "unit": "nM"}, {"measurement": "KAss (association constant)", "setting": "full length hPin1; [2]", "value": "5.18e+07 ± 7e+06", "unit": "M⁻¹"}, {"measurement": "binding enthalpy ΔHbind", "setting": "full length hPin1; [2]", "value": "-4.561 ± 0.036", "unit": "kcal/mol"}, {"measurement": "binding entropy TΔSbind", "setting": "full length hPin1; [2]", "value": "5.433 ± 0.529", "unit": "kcal/mol"}, {"measurement": "n (binding stoichiometry)", "setting": "full length hPin1; [2]", "value": 0.96}, {"measurement": "fold tighter binding of D isomer compared to L isomer", "setting": "full length hPin1; Pin1", "value": 30, "unit": "fold"}, {"measurement": "stability against HeLa cell lysate", "setting": "[1]; 3 hours of incubation, no phosphatase and protease inhibitors, capillary electrophoresis", "value": "complete stability"}, {"measurement": "stability in cytosol", "setting": "[1]; discussion statement (FIG. 4)", "value": "sufficiently stable"}]}
